{"source": "patent US10004711B2", "about": "“Methods and compositions comprising 10-hydroxy-2-decenoic acid” (DSM IP ASSETS B.V., priority 2014, dated 2018)", "key": {"[1]": {"system": "RAW264.7 mouse macrophage cell line", "test": "TNFα levels after LPS stimulation", "type": "cell-based", "conditions": "for TNFα (pg/mL)/Cell Numbers: 24 h", "experimental": "Cultures of the RAW264.7 mouse macrophage cell line were pre-treated with 10-Hydroxy-2-decenoic acid (QBA) for 1 hour prior to stimulation with lipopolysaccharide (LPS, 100 ng/mL). After 24 hours of incubation, interleukin […] (IL-1β) and tumor necrosis factor-α (TNFα) levels were determined by Luminex technology and cell numbers were measured using Alamar Blue. Results are given as a ratio of cytokine concentration/cell number."}, "[2]": {"system": "Neurons from the brain's hippocampus", "test": "Glutamate toxicity, cell death (propidium iodide)", "type": "cell-based, rat", "conditions": "for Cell Death (% Control): glutamate 25 μM 24 h", "experimental": "Neurons from the brain's hippocampus were derived from E17 pups and incubated for 7 days. The cells were pre-treated with QBA for 48 hours and subsequently challenged with glutamate (25 μM) for 24 hours. The cultures were then stained with propidium iodide, a marker of cell death, and with tetramethylrhodamine ethyl ester (TMRE), a marker for mitochondrial health. The fluorescence of each of these markers was then quantitated with a fluorimeter."}, "[3]": {"conditions": "Townsend et al. 1960; Izuta et al. 2009; cited from earlier work"}, "[4]": {"test": "Weight after Barnes maze psychological stress (Example 9)", "type": "in vivo, rat", "experimental": "Aged male rats were fed 10-Hydroxy-2-decenoic acid (QBA) for approximately […] from 12-months to 20-months of age and the weight of rats was recorded (N=11-14 per group). During the last month of QBA feeding animals were subjected to the psychological stress of the Barnes maze."}}}
{"smiles": "O=C(O)C=CCCCCCCCO", "note": "[QBA, 10-Hydroxy-2-decenoic acid]", "values": [{"measurement": "TNFα (pg/mL)/Cell Numbers", "setting": "[1]; QBA 50 μM 1 h before LPS 100 ng/mL", "result": "0.409 (pg/mL)/Cell Numbers"}, {"measurement": "TNFα (pg/mL)/Cell Numbers", "setting": "[1]; QBA 100 μM 1 h before LPS 100 ng/mL", "result": "0.456 (pg/mL)/Cell Numbers"}, {"measurement": "TNFα (pg/mL)/Cell Numbers", "setting": "[1]; QBA 500 μM 1 h before LPS 100 ng/mL", "result": "0.427 (pg/mL)/Cell Numbers"}, {"measurement": "TNFα (pg/mL)/Cell Numbers", "setting": "[1]; QBA 1000 μM 1 h before LPS 100 ng/mL", "result": "0.261 (pg/mL)/Cell Numbers"}, {"measurement": "TNFα (pg/mL)/Cell Numbers", "setting": "[1]; QBA 2500 μM 1 h before LPS 100 ng/mL", "result": "0.252 (pg/mL)/Cell Numbers"}, {"measurement": "TNFα (pg/mL)/Cell Numbers", "setting": "[1]; QBA 5000 μM 1 h before LPS 100 ng/mL", "result": "0.150 (pg/mL)/Cell Numbers"}, {"measurement": "production of TNFα in immune cells", "setting": "[1]; summary of Table 10", "result": "reduced the production"}, {"measurement": "Cell Death (% Control)", "setting": "[2]; QBA 0.10 μM pre-treatment 48 h", "result": 92.52, "unit": "% Control"}, {"measurement": "Cell Death (% Control)", "setting": "[2]; QBA 0.30 μM pre-treatment 48 h", "result": 90.43, "unit": "% Control"}, {"measurement": "Cell Death (% Control)", "setting": "[2]; QBA 1.00 μM pre-treatment 48 h", "result": 88.78, "unit": "% Control"}, {"measurement": "Cell Death (% Control)", "setting": "[2]; QBA 3.00 μM pre-treatment 48 h", "result": 94.07, "unit": "% Control"}, {"measurement": "Cell Death (% Control)", "setting": "[2]; QBA 10.00 μM pre-treatment 48 h", "result": 92.78, "unit": "% Control"}, {"measurement": "Cell Death (% Control)", "setting": "[2]; QBA 30.00 μM pre-treatment 48 h", "result": 90.69, "unit": "% Control"}, {"measurement": "Cell Death (% Control)", "setting": "[2]; QBA 100.00 μM pre-treatment 48 h", "result": 91.76, "unit": "% Control"}, {"measurement": "cell death after glutamate toxicity", "setting": "[2]; summary of Table 2", "result": "decreased cell death"}, {"measurement": "in vitro antitumor activity", "setting": "[3]", "result": "antitumor activity"}, {"measurement": "% Change (Weight after Barnes maze)", "setting": "[4]; QBA 12 mg/kg/day, behavior stress day 7", "result": "−0.15", "unit": "%"}, {"measurement": "% Change (Weight after Barnes maze)", "setting": "[4]; QBA 12 mg/kg/day, behavior stress day 14", "result": "−0.20", "unit": "%"}, {"measurement": "% Change (Weight after Barnes maze)", "setting": "[4]; QBA 12 mg/kg/day, behavior stress day 21", "result": 0.56, "unit": "%"}, {"measurement": "% Change (Weight after Barnes maze)", "setting": "[4]; QBA 12 mg/kg/day, behavior stress day 28", "result": 0.63, "unit": "%"}, {"measurement": "% Change (Weight after Barnes maze)", "setting": "[4]; QBA 12 mg/kg/day, behavior stress day 35", "result": 0.87, "unit": "%"}, {"measurement": "% Change (Weight after Barnes maze)", "setting": "[4]; QBA 24 mg/kg/day, behavior stress day 7", "result": "−0.15", "unit": "%"}, {"measurement": "% Change (Weight after Barnes maze)", "setting": "[4]; QBA 24 mg/kg/day, behavior stress day 14", "result": 0.02, "unit": "%"}, {"measurement": "% Change (Weight after Barnes maze)", "setting": "[4]; QBA 24 mg/kg/day, behavior stress day 21", "result": 0.54, "unit": "%"}, {"measurement": "% Change (Weight after Barnes maze)", "setting": "[4]; QBA 24 mg/kg/day, behavior stress day 28", "result": 0.74, "unit": "%"}, {"measurement": "% Change (Weight after Barnes maze)", "setting": "[4]; QBA 24 mg/kg/day, behavior stress day 35", "result": 1.32, "unit": "%"}, {"measurement": "weight change versus control, repeated measures ANOVA", "setting": "[4]; all doses versus 0 mg/kg/day QBA or 0 mg/kg/day QBA+0.07% DHA", "result": "small but significant increase"}, {"measurement": "weight loss associated with the psychological stress", "setting": "[4]; summary of Table 15", "result": "mitigated weight loss"}]}
